# Laboratory results taken from patent US10233174B2 (THERAVANCE BIOPHARMA R&D IP, LLC, priority 2017, dated 2019).
# Target: β-glucuronidase (Escherichia coli, UniProt P05804)
# Assay: Assay 11: Release of H2S and Tofacitinib (incubation with β-glucuronidase and monobromobimane)
# Format: in vitro ADME
# Settings: 50 μM compound 1, β-glucuronidase 100 units/mL, MBB 100 μM, pH 7.4, 37° C.
# Protocol: The method used to detect H2S was previously described in Tan et al., Nature Scientific Reports, 2017, 7:46278, DOI: 10.1038/srep46278.
# Compound 1 (50 μM) was incubated with β-glucuronidase (100 units/mL) and monobromobimane (MBB, 100 μM) in potassium phosphate buffer pH 7.4 (100 mM) for 60 min at 37° C. In addition, incubations were carried out with and without a) β-glucuronidase and b) MBB as negative control. Incubation of SN38-Glucuronide was also carried out with β-glucuronidase as a positive control for β-glucuronidase activity. The reactions were terminated at 60 min by the addition of three volumes of ice-cold acetonitrile to the incubation mixture. The incubation samples were centrifuged (4° C., 2200×g, 10 minutes) and the supernatants were transferred to amber HLPC vials. All samples were stored at 4° C. until the analysis. The samples were analyzed using a Thermo Orbitrap LC-MS/MS system.
# H2S was trapped using monobromobimane (MBB) to form sulfide dibimane (SDB).
# Chain of β-glucuronidase (P05804 whole entry): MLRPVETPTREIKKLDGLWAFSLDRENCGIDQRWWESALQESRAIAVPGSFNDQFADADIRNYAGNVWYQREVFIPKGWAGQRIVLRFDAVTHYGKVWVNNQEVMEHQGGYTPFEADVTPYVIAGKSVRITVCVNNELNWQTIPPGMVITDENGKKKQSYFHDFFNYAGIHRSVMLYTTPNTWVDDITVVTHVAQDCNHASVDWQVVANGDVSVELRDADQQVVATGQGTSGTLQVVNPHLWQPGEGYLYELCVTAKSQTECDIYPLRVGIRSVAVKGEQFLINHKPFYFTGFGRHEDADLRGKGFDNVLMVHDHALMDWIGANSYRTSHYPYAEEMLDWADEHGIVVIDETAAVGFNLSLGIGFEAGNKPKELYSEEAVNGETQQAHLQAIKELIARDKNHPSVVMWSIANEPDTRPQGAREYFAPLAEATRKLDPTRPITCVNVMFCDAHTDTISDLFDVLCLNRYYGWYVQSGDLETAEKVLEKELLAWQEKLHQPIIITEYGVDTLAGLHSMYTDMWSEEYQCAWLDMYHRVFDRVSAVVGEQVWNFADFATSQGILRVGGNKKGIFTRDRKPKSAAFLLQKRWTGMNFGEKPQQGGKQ
structure (smiles),measurement,value
"C[C@@H]1CCN(C(=O)CC#N)C[C@@H]1N(C)c1ncnc2c1ccn2C(=O)N(C)CCN(C)C(=S)OCc1ccc(O[C@@H]2O[C@H](C(=O)O)[C@@H](O)[C@H](O)[C@H]2O)c([N+](=O)[O-])c1 [Compound 1, (2S,3S,4S,5R,6S)-6-(4-((((2-(4-(((3R,4R)-1-(2-cyanoacetyl)-4-methylpiperidin-3-yl)(methyl)amino)-N-methyl-7H-pyrrolo[2,3-d]pyrimidine-7-carboxamido)ethyl)(methyl)carbamothioyl)oxy)methyl)-2-nitrophenoxy)-3,4,5-trihydroxytetrahydro-2H-pyran-2-carboxylic acid]",% (MS Peak Area) (60 min) of compound 1 (Parent) remaining,0%
